Data published in patent EP2567959B1, “6-(4-HYDROXY-PHENYL)-3-STYRYL-1H-PYRAZOLO[3,4-B]PYRIDINE-4-CARBOXYLIC ACID AMIDE DERIVATIVES AS KINASE INHIBITORS” (SANOFI, priority 2011, dated 2013).

These molecules were tested against T1, human full-length recombinant PKC βII (Homo sapiens, UniProt P05771) (assay: Determination of PKC βII inhibition (Caliper mobility-shift kinase assay, phosphorylation of fluorescein peptide substrate)). Conditions: 1 h; final compound concentration 1.14 µM (±0.15 µM); 60 min incubation at 32 °C.
T1 construct: Active human full-length recombinant PKC βII; purchased Invitrogen GmbH, Darmstadt, Germany
T1 sequence (P05771 1-673 isoform P05771-2): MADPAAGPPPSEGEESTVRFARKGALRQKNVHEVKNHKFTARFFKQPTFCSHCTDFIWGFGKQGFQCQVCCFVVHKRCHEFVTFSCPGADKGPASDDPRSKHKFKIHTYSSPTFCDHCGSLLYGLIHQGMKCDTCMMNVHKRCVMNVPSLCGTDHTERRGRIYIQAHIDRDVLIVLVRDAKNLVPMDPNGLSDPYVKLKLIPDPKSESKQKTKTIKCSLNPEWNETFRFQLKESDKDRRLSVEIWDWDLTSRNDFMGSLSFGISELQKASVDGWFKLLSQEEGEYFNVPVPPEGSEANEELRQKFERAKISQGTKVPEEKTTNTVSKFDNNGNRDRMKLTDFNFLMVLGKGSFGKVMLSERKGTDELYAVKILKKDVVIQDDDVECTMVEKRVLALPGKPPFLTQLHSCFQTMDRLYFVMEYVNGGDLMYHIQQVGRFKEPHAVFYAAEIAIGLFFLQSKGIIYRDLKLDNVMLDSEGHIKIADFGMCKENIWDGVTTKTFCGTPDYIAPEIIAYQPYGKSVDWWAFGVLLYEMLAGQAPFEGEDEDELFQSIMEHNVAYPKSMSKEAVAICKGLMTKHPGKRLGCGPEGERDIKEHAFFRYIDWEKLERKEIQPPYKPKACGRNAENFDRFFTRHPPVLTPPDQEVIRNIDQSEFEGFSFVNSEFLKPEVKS
Type: biochemical
Procedure: Determination of PKC βII inhibition
PKC βII inhibition was determined according to the following protocol:
Active human full-length recombinant PKC βII and the peptide substrate, Fluorescein-RFARKGSLRQKNV, were purchased from Invitrogen GmbH, Darmstadt, Germany. Adenosine-5'-triphosphate (ATP), bovine serum albumine (BSA), dimethylsulphoxide (DMSO), 4-(2-hydroxyethyl)piperazine-1-ethanesulfonic acid (Hepes), Triton X-100, 1,2-Dioleoyl-sn-glycerol (DAG), L-α-Phosphatidyl-L-serine (PS), calcium chloride (CaCl2), and Pluronic F-68 were purchased from Sigma-Aldrich, Munich, Germany. Magnesium chloride, 1 M sodium hydroxide solution, 1M hydrochloric acid solution and EDTA were obtained from Merck Biosciences, Darmstadt, Germany.
Test compounds were diluted to three times the test concentration in buffer 1 (30 mM Hepes-NaOH, pH 7.4, 0.01 % Pluronic F-68 and 3 % (v/v) DMSO). The PKC βII enzyme was diluted to a concentration of 30 ng/ml in buffer 2 (30 mM Hepes-NaOH, pH 7.4, 15 mM MgCl2,150 µM CaCl2, 150 µg/ml PS, 60 µg/ml DAG, and 0.045 % (w/v) Triton X-100). The peptide substrate and ATP were diluted to concentrations of 3 µM and 120 µM, respectively, in buffer 2. Two µl of the compound solution were mixed with 2 µl of the diluted enzyme in a 384-well small volume microtiter plate (Greiner, Bio-One, Frickenhausen, Germany), and the kinase reaction was initiated by addition of 2 µl of the solution containing peptide substrate and ATP. After 60 min incubation at 32 °C, the reaction was stopped by addition of 20 µl of a solution containing 130 mM Hepes-NaOH, pH 7.4, 0.0195 % (v/v) Brij-35, 6.5 mM EDTA, 0.13 % chip coating reagent 3 (Caliper Lifescience Inc, Hopkinton, MA) and 6.5 % (v/v) DMSO. Phosphorylation of the substrate peptide was then detected on a Caliper 3000 instrument essentially as described by Pommereau et al (J. Biomol. Screening 2004, 9(5), 409-416). Separation conditions were as follows: Pressure -0.8 psi, upstream voltage - 3000 V, downstream voltage -800 V. Positive controls (buffer 1 instead of compound) and negative controls (buffer 1 instead of compound and buffer 2 instead of kinase solution) were run in parallel on each plate. Fractional turnover (R) was determined as the height of the peak of the phosphorylated peptide product divided by the sum of the unphosphorylated substrate and phosphorylated product peak heights. Percent-inhibition values for the test compounds were determined using the formula % Inhibition = 100*(1-(Rcompound-Rnegative control)/(Rpositive control-Rnegative control). [formula]
In the following table % inhibition values observed with example compounds at a final concentration of 1.14 µM (±0.15 µM) are listed: […]
In the case of `O=C(c1cc(-c2ccc(O)cc2)nc2[nH]nc([C@H]3C[C@@H]3c3ccccc3)c12)N1CCNCC1` (racemic) [Example 18, (±)-[6-(4-Hydroxy-phenyl)-3 trans-(2-phenyl-cyclopropyl)-1 H-pyrazolo[3,4-b]pyridin-4-yl]-piperazin-1-yl-methanone], the inhibition at 1.14 µM is reported as 94%.

Same assay, conditions: final compound concentration 1.14 µM (±0.15 µM); 60 min incubation at 32 °C
For `CC1(C)CN(C(=O)c2cc(-c3ccc(O)cc3)nc3[nH]nc(/C=C/c4ccccc4)c23)CCN1` [Example 4, (3,3-Dimethyl-piperazin-1-yl)-[6-(4-hydroxy-phenyl)-3-((E)-styryl)-1H-pyrazolo[3,4-b]pyridin-4-yl]-methanone], the inhibition at 1.14 µM was 99%.
For `COc1ccc(/C=C/c2n[nH]c3nc(-c4ccc(O)cc4)cc(C(=O)N4CCNCC4)c23)c(OC)c1` [Example 43, [3-[(E)-2-(2,4-Dimethoxyphenyl)-vinyl]-6-(4-hydroxy-phenyl)-1H-pyrazolo[3,4-b]pyridin-4-yl]-piperazin-1-yl-methanone], the inhibition at 1.14 µM was 87%.
`O=C(c1cc(-c2ccc(O)cc2)nc2[nH]nc(/C=C/c3ccccc3)c12)N1CCC2(CCNC2)C1` (stereo not shown) [Example 78, (2,7-Diaza-spiro-[4.4]non-2-yl)-[6-(4-hydroxy-phenyl)-3-((E)-styryl)-1H-pyra-zolo[3,4-b]py-ridin-4-yl]-methanone] was tested, and the inhibition at 1.14 µM was 94%.
Molecule `CCc1ccc(/C=C/c2n[nH]c3nc(-c4ccc(O)cc4)cc(C(=O)N4CCNCC4)c23)cc1` [Example 53, [3-[(E)-2-(4-Ethyl-phenyl)-vinyl]-6-(4-hydroxy-phenyl)-1H-pyrazolo[3,4-b]pyridin-4-yl]-piperazin-1-yl-methanone] has an inhibition at 1.14 µM of 95%.
With `CN(C)c1cccc(/C=C/c2n[nH]c3nc(-c4ccc(O)cc4)cc(C(=O)N4CCNCC4)c23)c1` [Example 23, [3-[(E)-2-(3-Dimethylamino-phenyl)-vinyl]-6-(4-hydroxy-phenyl)-1H-pyra-zolo[3,4-b]pyri-din-4-yl]-pipe-razin-1-yl-methanone] the inhibition at 1.14 µM was 99%.
`CN(C)C(=O)c1cccc(/C=C/c2n[nH]c3nc(-c4ccc(O)cc4)cc(C(=O)N4CCNCC4(C)C)c23)c1` [Example 34, 3-{(E)-2-[4-(2,2-Dimethyl-piperazine-1-carbonyl)-6-(4-hydroxy-phenyl)-1H-pyrazolo[3,4-b]pyridin-3-yl]-vinyl}-N,N-dimethyl-benzamide] gave an inhibition at 1.14 µM of 98%.
Work on `O=C(c1cc(-c2ccc(O)c(F)c2)nc2[nH]nc(/C=C/c3ccccc3)c12)N1CCNCC1` [Example 12, [6-(3-Fluoro-4-hydroxy-phenyl)-3-((E)-styryl)-1H-pyrazolo[3,4-b]pyridin-4-yl]-piperazin-1-yl-methanone] yielded an inhibition at 1.14 µM of 97%.
Molecule `O=C(c1cc(-c2ccc(O)cc2)nc2[nH]nc(/C=C/c3ccccc3)c12)N1CCNC2(CCCC2)C1` [Example 79, (6,9-Diaza-spiro-[4.5]dec-9-yl)-[6-(4-hydroxy-phenyl)-3-((E)-styryl)-1H-pyra-zolo[3,4-b]py-ridin-4-yl]-methanone] has an inhibition at 1.14 µM of 97%.
For `CC(=O)c1ccc(/C=C/c2n[nH]c3nc(-c4ccc(O)cc4)cc(C(=O)N4CCNCC4)c23)cc1` [Example 57, 1-(4-{(E)-2-[6-(4-Hydroxy-phenyl)-4-(piperazine-1-carbonyl)-1H-pyrazolo[3,4-b]pyridin-3-yl]-vinyl}-phenyl)-ethanone], the inhibition at 1.14 µM was 98%.
`O=C(c1cc(-c2ccc(O)cc2)nc2[nH]nc(/C=C/c3ccc(Cl)cc3Cl)c12)N1CCNCC1` [Example 39, [3-[(E)-2-(2,4-Dichloro-phenyl)-vinyl]-6-(4-hydroxy-phenyl)-1H-pyrazolo[3,4-b]pyridin-4-yl]-piperazin-1-yl-methanone] was tested, and the inhibition at 1.14 µM was 39%.
`O=C(c1cc(-c2ccc(O)cc2)nc2[nH]nc(/C=C/c3cccc4c3NCC4)c12)N1CCNCC1` [Example 33, [3-[(E)-2-(2,3-Dihydro-1H-indol-7-yl)-vinyl]-6-(4-hydroxyphenyl)-1H-pyrazolo[3,4-b]-pyridin-4-yl]-piperazin-1-yl-methanone] showed an inhibition at 1.14 µM of 99%.
For `COc1cccc(/C=C/c2n[nH]c3nc(-c4ccc(O)cc4)cc(C(=O)N4CCNCC4)c23)c1` [Example 56, {6-(4-Hydroxy-phenyl)-3-[(E)-2-(3-methoxyphenyl)-vinyl]-1H-pyrazolo[3,4-b]pyridin-4-yl}-piperazin-1-yl-methanone], the inhibition at 1.14 µM was 100%.
With `O=C(c1cc(-c2ccc(O)cc2)nc2[nH]nc(/C=C/c3cc(Cl)cc(Cl)c3)c12)N1CCNCC1` [Example 70, [3-[(E)-2-(3,5-Dichloro-phenyl)-vinyl]-6-(4-hydroxy-phenyl)-1H-pyrazolo[3,4-b]pyridin-4-yl]-piperazin-1-yl-methanone] the inhibition at 1.14 µM was 98%.
`O=C(c1cc(-c2ccc(O)cc2)nc2[nH]nc(/C=C/c3ccc(F)c(F)c3)c12)N1CCNCC1` [Example 59, [3-[(E)-2-(3,4-Difluoro-phenyl)-vinyl]-6-(4-hydroxy-phenyl)-1H-pyrazolo[3,4-b]pyridin-4-yl]-piperazin-1-yl-methanone] was tested, and the inhibition at 1.14 µM was 97%.
`CN(C)C(=O)c1ccc(/C=C/c2n[nH]c3nc(-c4ccc(O)cc4)cc(C(=O)N4CCNCC4)c23)cc1` [Example 66, 4-{(E)-2-[6-(4-Hydroxy-phenyl)-4-(piperazine-1-carbonyl)-1H-pyrazolo[3,4-b]pyridin-3-yl]-vinyl}-N,N-dimethyl-benzamide] was tested, and the inhibition at 1.14 µM was 99%.
Molecule `CN1Cc2ccc(/C=C/c3n[nH]c4nc(-c5ccc(O)cc5)cc(C(=O)N5CCNCC5)c34)cc2C1=O` [Example 35, 6-{(E)-2-[6-(4-Hydroxy-phenyl)-4-(piperazine-1-carbonyl)-1H-pyrazolo[3,4-b]pyridin-3-yl]-vinyl}-2-methyl-2,3-dihydro-isoindol-1-one] has an inhibition at 1.14 µM of 98%.
Molecule `COc1cc(-c2cc(C(=O)N3CCNCC3)c3c(/C=C/c4ccccc4)n[nH]c3n2)ccc1O` [Example 9, [6-(4-Hydroxy-3-methoxy-phenyl)-3-((E)-styryl)-1H-pyrazolo[3,4-b]pyridin-4-yl]-piperazin-1-yl-methanone] has an inhibition at 1.14 µM of 55%.
Work on `Cc1ccc(/C=C/c2n[nH]c3nc(-c4ccc(O)cc4)cc(C(=O)N4CCNCC4)c23)cc1` [Example 21, [6-(4-Hydroxy-phenyl)-3-((E)-2-p-tolyl-vinyl)-1H-pyrazolo[3,4-b]-pyridin-4-yl]-piperazin-1-yl-methanone] yielded an inhibition at 1.14 µM of 98%.
`O=C(c1cc(-c2ccc(O)cc2)nc2[nH]nc(/C=C/c3cccc(N4CCCC4=O)c3)c12)N1CCNCC1` [Example 20, 1-(3-{(E)-2-[6-(4-Hydroxy-phenyl)-4-(piperazine-1-carbonyl)-1H-pyrazolo[3,4-b]pyridin-3-yl]-vinyl}-phenyl)-pyrrolidin-2-one] was tested, and the inhibition at 1.14 µM was 115%.
In the case of `Cc1ccc(/C=C/c2n[nH]c3nc(-c4ccc(O)cc4)cc(C(=O)N4CCNCC4)c23)cc1F` [Example 55, [3-[(E)-2-(3-Fluoro-4-methyl-phenyl)-vinyl]-6-(4-hydroxy-phenyl)-1H-pyrazolo[3,4-b]pyridin-4-yl]-piperazin-1-yl-methanone], the inhibition at 1.14 µM is reported as 76%.
`O=C(c1cc(-c2ccc(O)cc2)nc2[nH]nc(/C=C/c3ccc(OC(F)F)cc3)c12)N1CCNCC1` [Example 41, [3-[(E)-2-(4-Difluoromethoxy-phenyl)-vinyl]-6-(4-hydroxy-phenyl)-1H-pyrazolo[3,4-b]pyridin-4-yl]-piperazin-1-yl-methanone] showed an inhibition at 1.14 µM of 97%.
For `O=C(c1cc(-c2ccc(O)cc2)nc2[nH]nc(/C=C/c3ccccc3F)c12)N1CCNCC1` [Example 72, [3-[(E)-2-(2-Fluoro-phenyl)-vinyl]-6-(4-hydroxy-phenyl)-1H-pyrazolo[3,4-b]pyridin-4-yl]-piperazin-1-yl-methanone], the inhibition at 1.14 µM was 99%.
`COC(=O)N1CCN(C(=O)c2cc(-c3ccc(O)cc3)nc3[nH]nc(/C=C/c4ccccc4)c23)CC1` [Example 82, 4-[6-(4-Hydroxy-phenyl)-3-((E)-styryl)-1H-pyra-zolo[3,4-b]pyri-dine-4-carbonyl]-piperazine-1-carboxylic acid methyl ester] showed an inhibition at 1.14 µM of 56%.
`C[C@@H]1CN(C(=O)c2cc(-c3ccc(O)cc3)nc3[nH]nc(/C=C/c4ccccc4)c23)[C@@H](C)CN1` [Example 8, ((2S,5R)-2,5-Dimethyl-piperazin-1-yl)-[6-(4-hydroxy-phenyl)-3-((E)-styryl)-1H-pyrazolo[3,4-b]pyridin-4-yl]-methanone] gave an inhibition at 1.14 µM of 97%.
